From patent US20250325520A1, “Methods for Targeting Cancer Cells Using Amino Acids” (University of Denver, priority 2024, published 2025)

Columns and labels:
[1] = test system: PANC-1 and MIA PaCa-2 (malignant pancreas epithelial) cells; experiment: Cell viability / cytotoxicity (CCK-8) on PDAC tumor cells; assay type: cell-based, human; details: for cytotoxic efficacy on tumor cells / viability dose response of tumor cells: individual amino acid, 48 hours, FIGS. 7, 8
Protocol: (§1) Malignant pancreatic cell lines (PANC-1 and MIA PaCa-2) and nonmalignant human pancreas cell line (HPNE) were obtained from the American Type Culture Collection (Manassas, Virginia). The cells were cultured in DMEM medium (HYCLONE™ sera, available from GE Healthcare Life Sciences) with HPNE cells having 0.1 ng/ml EGF (Novus Biologicals, USA) included. All cultures were supplemented with 10% fetal bovine serum (FBS, Life Technology, Thermo Fisher Scientific Inc.), penicillin (1 U), and streptomycin (1 μg/ml). All cells were maintained in a humidified incubator with 5% CO2 at 37° C. All cell lines were cultured in triplicate under the same conditions, then harvested to collect independent exosome samples. Cells were seeded in 96-well plates at a density of 10^4 cells/well. After 24 hours, culture medium with increasing concentrations of treatment was added to the treatment group for 48 hours. Cell viability was accessed by Cell Counting Kit-8 (CCK-8; Dojindo Laboratories) following the manufacturer's instructions. Briefly, a mixture of 10 μl of CCK-8 and 190 μl media was added into each well and the cells were incubated for another 1 hour. The absorbance of each well was measured at 450 nm using a microplate reader. Each experiment was repeated six times.

[2] = test system: PANC-1 subcutaneous pancreatic tumor; experiment: Subcutaneous PANC-1 xenograft in nude mice; assay type: in vivo; details: AA oral gavage daily, GEM intraperitoneal twice a week, n=5, FIG. 32
Protocol: In particular, the xenograft model was established with six to eight-week-old male nude mice (J:NU-Foxn1nu) purchased from The Jackson Laboratory (Bar Harbor, ME). […] The pancreatic cancer tumor was injected subcutaneously into the left flank of each mouse with 4×10^6 PANC-1 cells suspended in 100 μl of serum-free media with 50% […] ® matrix to establish a subcutaneous pancreatic tumor.
Mice were observed three times daily for the first seven days and tumor xenograft was confirmed by the presence of the tumor. […] Tumor volume and mice weight were measured every fifth day. Tumor volume was established by measuring length and width; the volume formula used was the modified ellipsoid volume formula (½ length×width 2).
For AA and control groups, treatment was given by oral gavage. AA treatment was made from a combination of histidine (44 mg/ml) and isoleucine (22 mg/ml) dissolved in PBS. For the two groups with AA, oral gavage treatment was administered daily with 200 μl AA treatment using a 20 ga polypropylene feeding tube attached to a syringe. For the control group, oral gavage treatment was administered using the same method except with 200 μl PBS. For the GEM and AA+GEM groups, GEM was given by intraperitoneal injection. GEM groups were injected twice a week with 200 μl of GEM (15 mg/ml) dissolved in PBS. All treatments were administered for sixty days. […]

[3] = pH change of the media caused by amino acid addition; assay type: physicochemical; details: culture media, FIG. 6
[4] = test system: hTert-HPNE (nonmalignant pancreas epithelial) cells; experiment: Cell viability / cytotoxicity (CCK-8) on nontumor cells; assay type: cell-based, human; details: individual amino acid, 48 hours, FIGS. 7, 8
Protocol: as §1

SMILES | pH change caused by amino acid addition [3] | time-dependent cytotoxicity to tumor cells ([1]; AA compared with GEM, FIG. 13) | antitumor efficacy (tumor volume) [2] | cell viability of nontumor cells [4] | cytotoxic efficacy on tumor cells [1] | viability dose response of tumor cells [1]
Nc1ccn([C@@H]2O[C@H](CO)[C@@H](O)C2(F)F)c(=O)n1 [GEM, gemcitabine, reference compound] |  | faster efficacy and is more tumoricidal effective | showed antitumor efficacy |  |  | 
N=C(N)NCCC[C@H](N)C(=O)O [arginine, reference compound] | significant pH change |  |  |  |  | 
N[C@@H](CS)C(=O)O [cysteine, reference compound] | significant pH change |  |  |  |  | 

Now from value to molecule, other results behind:

pH change caused by amino acid addition [3] | SMILES | time-dependent cytotoxicity to tumor cells ([1]; AA compared with GEM, FIG. 13) | antitumor efficacy (tumor volume) [2] | cell viability of nontumor cells [4] | cytotoxic efficacy on tumor cells [1] | viability dose response of tumor cells [1]
trivial impact | N[C@@H](Cc1c[nH]cn1)C(=O)O [histidine] |  |  | no significant difference in cell viability | selective cytotoxic efficacy | monotonic dose response
trivial impact | CC[C@H](C)[C@H](N)C(=O)O [isoleucine] |  |  | no significant difference in cell viability | selective cytotoxic efficacy | monotonic dose response
